# Data taken from paper PMC7570497, “Design, Synthesis and Functional Analysis of Cyclic Opioid Peptides with Dmt-Tic Pharmacophore” (Molecules, 2020).
# Bridge positions count the residues as written; N and C are the ends. Square brackets hold non-standard residues; d marks the D form. Peptide text beside a SMILES is read from it. Phe(2,4-F2) = N[C@@H](Cc1ccc(F)cc1F)C(=O)O; d2Nal = N[C@H](Cc1ccc2ccccc2c1)C(=O)O; Dmt = Cc1cc(O)cc(C)c1C[C@H](N)C(=O)O; Tic = O=C(O)[C@@H]1Cc2ccccc2CN1; dDap = NC[C@@H](N)C(=O)O
# Key:
# human KOR = molecular target: T1, human KOR (Homo sapiens, UniProt P41145); assay: Calcium mobilization assay, agonist mode, KOR; format: cell-based; conditions: for KOR pEC50 (CL95%) / KOR α ± SEM (efficacy, intrinsic activity): CHO cells co-expressing human KOR and Gαqi5, inactive = inactive up to 10 μM, n ≥ 5; for KOR pEC50 (CL95%): Fluo-4 AM, reference agonist dynorphin A, mean ± SEM; for KOR α ± SEM (efficacy, intrinsic activity): ratio of peptide Emax to Emax of dynorphin A
# T1 construct: expressed in transfected cells; host or cells: CHO cells (gift from Prof. Girolamo Calo, Ferrara University)
# Description: (§1) Calcium mobilization assay was performed as reported previously. CHO cells stably co-expressing human MOR or KOR and the C-terminally modified Gαqi5 and CHO cells co-expressing DOR and the GαqG66Di5 protein were used for the tests. Briefly, cells incubated for 24 h in 96-well black, clear-bottom plates were loaded with medium supplemented with probenecid (2.5 mmol/L), calcium-sensitive fluorescent dye Fluo-4 AM (3 μmol/L) and pluronic acid (0.01%) and kept at 37 °C for 30 min. Following aspiration of the loading solution and a washing step, serial dilutions of peptide stock solutions were added. Cells without peptides were treated as the control. […] Ligand efficacy was expressed as intrinsic activity (α) calculated as a ratio of the peptide Emax to Emax of the standard agonist.
# human MOR = molecular target: T2, human MOR (Homo sapiens, UniProt P35372); assay: Calcium mobilization assay, agonist mode, MOR; format: cell-based; conditions: for MOR α ± SEM (efficacy, intrinsic activity): ratio of peptide Emax to Emax of dermorphin
# T2 construct: expressed in transfected cells; host or cells: CHO cells (gift from Prof. Girolamo Calo, Ferrara University)
# [1] = Enzymatic stability in rat brain homogenate; format: in vitro ADME; conditions: rat brain homogenate 10 mg protein/mL in Tris.HCl 50 mM pH 7.4; 100 μL homogenate + 100 μL peptide (0.5 mM); 37 °C; 60 min; HPLC area %; three independent experiments; read-out: Enzymatic Stability Area [%]: amount of peptide remained after 60 min incubation with rat brain homogenate
# Description: The metabolic stability of analogs was assessed in the presence of the rat brain homogenate. All new cyclopeptides remained almost intact after 60 min incubation with the homogenate (Table 1).
# Enzymatic degradation studies of the analogs were carried out using rat brain homogenate (10 mg protein/mL). To prepare, the homogenate rat brains were isolated, pooled and homogenized in a Polytron with 20 volumes of Tris.HCl (50 mM, pH 7.4), and the homogenate was then stored at −80°C until use. Aliquots of the homogenate (100 μL) were incubated with 100 μL of peptide (0.5 mM) over 0, 7.5, 15, 22.5, 30, and 60 min at 37 °C, in a final volume of 200 μL. The reaction was stopped at the required time by placing the tube on ice and acidifying the content with 20 μL of HCl (1 M). The aliquots were centrifuged at 20,000× g for 10 min at 4 °C. The supernatants were filtered over Millex-GV syringe filters (Millipore, Billerica, MA, USA) and analyzed by HPLC on a Vydac C18 column (4.6 mm × 250 mm, 5 μm,), using the solvent system of 0.1% TFA in water (A) and 80% acetonitrile in water containing 0.1% TFA (B) and a linear gradient of 0–100% B over 25 min. Three independent experiments for each assay were carried out. The amount of remaining peptide (area %) was calculated.
# DOR [2] = molecular target: T3, DOR (Homo sapiens, UniProt P41143); assay: Calcium mobilization assay, agonist mode, DOR; format: cell-based; design: expressed in transfected cells; host or cells: CHO cells (gift from Prof. Girolamo Calo, Ferrara University); conditions: CHO cells co-expressing DOR and GαqG66Di5, inactive = inactive up to 10 μM, n ≥ 5; for DOR pEC50 (CL95%): Fluo-4 AM, reference agonist DPDPE, mean ± SEM; for DOR α ± SEM (efficacy, intrinsic activity): ratio of peptide Emax to Emax of DPDPE
# Description: as §1
# DOR [3] = molecular target: T3, DOR; assay: Calcium mobilization assay, antagonism of DPDPE at DOR
# [4] = LC-MS elution order in reverse-phase chromatography to estimate lipophilicity; format: physicochemical; conditions: LC-MS (XIC); Aeris Peptide XB-C18 and Kinetex Biphenyl columns, identical order on both; gradient 5–80% acetonitrile in water in 10 min, 0.1% HCOOH
# Text: The lipophilicity of compounds is often a useful characteristic allowing one to predict or rationalize their interactions with a given receptor [40]. Here, the liquid chromatography–mass spectrometry (LC-MS) procedure was applied to study the elution order of analogs in the reverse-phase chromatography to estimate their lipophilicity. The mixture of peptides 1–6 was run in the same experimental conditions on two types of columns, an Aeris Peptide C18 column and a novel biphenyl stationary phase HPLC column. The biphenyl column can be complementary to a C18 column, as it can engage in π–π interactions with the eluted compound [41]. As expected, peptides were more retained on the biphenyl column, due to the π stacking interactions of their aromatic rings with the solid support.
# Figure 1 LC-MS chromatograms (extracted ion currents (XIC)) for peptides 1–6. Panel (A): Aeris Peptide XB-C18 column. Panel (B): Kinetex Biphenyl column. […]
# Protected amino acids were purchased from Bachem AG (Bubendorf, Switzerland). p-Methylbenzhydrylamine (MBHA) resin was obtained from Novabiochem (San Diego, CA, USA). Semi-preparative and analytical RP-HPLC was performed using Waters Breeze instrument (Milford, MA, USA) with the dual absorbance detector (Waters 2487) on a Vydac C18 column (22 × 250 mm, 10 μm) and Vydac C18 column (4.6 × 250 mm, 5 μm), respectively. […]
# [5] = CHO cells co-expressing human MOR and Gαqi5, inactive = inactive up to 10 μM, n ≥ 5
# T2 sequence (P35372 whole entry): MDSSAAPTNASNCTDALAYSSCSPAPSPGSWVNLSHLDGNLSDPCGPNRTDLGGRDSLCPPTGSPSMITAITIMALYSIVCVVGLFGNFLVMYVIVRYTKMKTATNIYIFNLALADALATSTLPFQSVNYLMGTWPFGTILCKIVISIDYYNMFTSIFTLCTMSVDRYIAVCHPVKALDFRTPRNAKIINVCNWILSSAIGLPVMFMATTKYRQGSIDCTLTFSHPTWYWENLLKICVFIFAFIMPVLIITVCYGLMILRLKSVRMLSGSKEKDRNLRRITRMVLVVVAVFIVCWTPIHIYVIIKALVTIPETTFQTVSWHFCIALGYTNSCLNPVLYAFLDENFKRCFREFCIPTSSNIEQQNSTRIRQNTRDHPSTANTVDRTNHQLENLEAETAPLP
# T3 sequence (P41143 whole entry): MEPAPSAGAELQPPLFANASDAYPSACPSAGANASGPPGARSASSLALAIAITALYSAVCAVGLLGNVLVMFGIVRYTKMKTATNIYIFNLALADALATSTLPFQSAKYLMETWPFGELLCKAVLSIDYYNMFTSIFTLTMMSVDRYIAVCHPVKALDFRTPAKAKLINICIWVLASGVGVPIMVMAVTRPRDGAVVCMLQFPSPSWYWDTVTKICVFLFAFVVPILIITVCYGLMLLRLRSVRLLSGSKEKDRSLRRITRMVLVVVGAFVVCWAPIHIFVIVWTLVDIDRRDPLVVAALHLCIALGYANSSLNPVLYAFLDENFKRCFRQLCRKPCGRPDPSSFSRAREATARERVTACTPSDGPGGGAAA
# T1 sequence (P41145 whole entry): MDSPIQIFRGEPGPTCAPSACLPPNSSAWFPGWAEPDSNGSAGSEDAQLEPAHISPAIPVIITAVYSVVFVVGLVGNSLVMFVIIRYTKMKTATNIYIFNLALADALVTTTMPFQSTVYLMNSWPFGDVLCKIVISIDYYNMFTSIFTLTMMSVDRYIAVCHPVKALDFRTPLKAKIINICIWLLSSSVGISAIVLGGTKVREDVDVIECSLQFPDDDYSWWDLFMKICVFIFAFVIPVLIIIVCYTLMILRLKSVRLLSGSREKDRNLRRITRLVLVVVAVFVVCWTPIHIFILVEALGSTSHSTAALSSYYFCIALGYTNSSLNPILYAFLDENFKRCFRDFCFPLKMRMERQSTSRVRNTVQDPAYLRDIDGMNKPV
SMILES,KOR pEC50 (CL95%) (human KOR),"KOR α ± SEM (efficacy, intrinsic activity) (human KOR)",EC50 (human MOR),"MOR α ± SEM (efficacy, intrinsic activity) (human MOR; [5])","remaining at 1 h, 0.25 mM [1]",DOR pEC50 (CL95%) (DOR [2]),"DOR α ± SEM (efficacy, intrinsic activity) (DOR [2])",Kb (DOR [3]),EC50 (human KOR; read-out: KOR pEC50 (CL95%) (converted)),Elution order in reverse-phase chromatography (lipophilicity) [4],"MOR pEC50 (CL95%) (human MOR; CHO cells co-expressing human MOR and Gαqi5, Fluo-4 AM, reference agonist dermorphin, inactive = inactive up to 10 μM, mean ± SEM, n ≥ 5)"
"Cc1cc(O)cc(C)c1C[C@H](NC(=O)[C@@H]1Cc2ccccc2CN1C(=O)[C@@H]1CC(=O)NCCCC[C@@H](NC(=O)[C@@H]2Cc3ccccc3CN2C(=O)[C@@H](N)Cc2c(C)cc(O)cc2C)C(=O)N[C@@H](Cc2ccccc2)C(=O)N1)C(N)=O [compound 6, Dmt-Tic-c[D-Lys-Phe-Asp]-Tic-Dmt-NH2] (H-[Dmt][Tic][dK]FD[Tic][Dmt]-NH2; lactam 3-5)",inactive,inactive,331 nM,0.17 ± 0.20,97.6 ± 1.2%,inactive,inactive,1.1 nM,–,–,–
"Cc1cc(O)cc(C)c1C[C@H](N)C(=O)N1Cc2ccccc2C[C@H]1C(=O)N[C@@H]1CCCCNC(=O)C[C@@H](C(N)=O)NC(=O)[C@H](Cc2ccccc2)NC(=O)[C@H](Cc2ccccc2)NC1=O [compound 1, Dmt-Tic-c[D-Lys-Phe-Phe-Asp]NH2] (H-[Dmt][Tic][dK]FFD-NH2; lactam 3-6)",–,0.20 ± 0.06,661 nM,0.15 ± 0.02,97.88 ± 0.83%,inactive,inactive,42.7 nM,490 nM,–,–
"CC1(C)SSC(C)(C)[C@@H](NC(=O)[C@@H](N)Cc2ccc(O)cc2)C(=O)NCC(=O)N[C@@H](Cc2ccccc2)C(=O)N[C@H]1C(=O)O [DPDPE, reference compound]",inactive,inactive,–,–,–,–,–,–,–,–,–
"Cc1cc(O)cc(C)c1C[C@H](N)C(=O)N1Cc2ccccc2C[C@H]1C(=O)N[C@@H]1CCCCNC(=O)C[C@@H](C(N)=O)NC(=O)[C@H](Cc2ccccc2)NC1=O [compound 5, Dmt-Tic-c[D-Lys-Phe-Asp]NH2] (H-[Dmt][Tic][dK]FD-NH2; lactam 3-5)",inactive,inactive,813 nM,0.3 ± 0.03,96.76 ± 0.91%,inactive,inactive,0.525 nM,–,least lipophilic,–
"Cc1cc(O)cc(C)c1C[C@H](N)C(=O)N1Cc2ccccc2C[C@H]1C(=O)N[C@@H]1CCCCNC(=O)C[C@@H](C(N)=O)NC(=O)[C@H](Cc2ccc(F)cc2F)NC(=O)[C@H](Cc2ccccc2)NC1=O [compound 3, Dmt-Tic-c[D-Lys-Phe-2,4F2-Phe-Asp]NH2] (H-[Dmt][Tic][dK]F[Phe(2,4-F2)]D-NH2; lactam 3-6)",–,–,–,–,95.19 ± 0.86%,–,–,–,–,–,–
"CC[C@H](C)[C@H](NC(=O)[C@H](CCCNC(=N)N)NC(=O)[C@H](CCCNC(=N)N)NC(=O)[C@H](CC(C)C)NC(=O)[C@H](Cc1ccccc1)NC(=O)CNC(=O)CNC(=O)[C@@H](N)Cc1ccc(O)cc1)C(=O)N[C@@H](CCCNC(=N)N)C(=O)N1CCC[C@H]1C(=O)N[C@@H](CCCCN)C(=O)N[C@@H](CC(C)C)C(=O)N[C@@H](CCCCN)C(=O)N[C@@H](Cc1c[nH]c2ccccc12)C(=O)N[C@@H](CC(=O)O)C(=O)N[C@@H](CC(N)=O)C(=O)N[C@@H](CCC(N)=O)C(=O)O [dynorphin A, reference compound]",–,–,–,–,–,–,0.99 ± 0.04,–,–,–,–
"Cc1cc(O)cc(C)c1C[C@H](N)C(=O)N1Cc2ccccc2C[C@H]1C(=O)N[C@@H]1CCCCNC(=O)C[C@@H](C(N)=O)NC(=O)[C@@H](Cc2ccc3ccccc3c2)NC(=O)[C@H](Cc2ccccc2)NC1=O [compound 2, Dmt-Tic-c[D-Lys-Phe-D-2Nal-Asp]NH2] (H-[Dmt][Tic][dK]F[d2Nal]D-NH2; lactam 3-6)",inactive,inactive,617 nM,0.37 ± 0.05,98.17 ± 0.23%,inactive,inactive,28.2 nM,–,–,–
"C[C@@H](NC(=O)[C@@H](N)Cc1ccc(O)cc1)C(=O)N[C@@H](Cc1ccccc1)C(=O)NCC(=O)N[C@@H](Cc1ccc(O)cc1)C(=O)N1CCC[C@H]1C(=O)N[C@@H](CO)C(N)=O [dermorphin, reference compound]",inactive,inactive,–,1.00,–,inactive,inactive,–,–,–,–
"Cc1cc(O)cc(C)c1C[C@H](N)C(=O)N1Cc2ccccc2C[C@H]1C(=O)N[C@@H]1CNC(=O)C[C@@H](C(N)=O)NC(=O)[C@H](Cc2ccccc2)NC(=O)[C@H](Cc2ccccc2)NC1=O [compound 4, Dmt-Tic-c[D-Dap-Phe-Phe-Asp]NH2] (H-[Dmt][Tic][dDap]FFD-NH2; lactam 3-6)",inactive,inactive,–,inactive,96.21 ± 0.89%,inactive,inactive,2.45 nM,–,–,inactive
